Entries after “also recorded” stand apart in the source; their conditions may differ. Read-outs that look alike come from different tables or passages of the source.
Columns and labels:
DC-SIGN CRD = target: T1, DC-SIGN CRD (Homo sapiens, UniProt Q9NNX6); assay: Surface plasmon resonance (SPR) binding to immobilised DC-SIGN CRD; conditions: for Kd / KD (μM): Kd=koff/kon
T1 construct: human DC-SIGN (Lys62-Ala404, from R§D Systems); purchased R&D Systems ('R§D Systems' [sic])
T1 sequence (Q9NNX6 62-404): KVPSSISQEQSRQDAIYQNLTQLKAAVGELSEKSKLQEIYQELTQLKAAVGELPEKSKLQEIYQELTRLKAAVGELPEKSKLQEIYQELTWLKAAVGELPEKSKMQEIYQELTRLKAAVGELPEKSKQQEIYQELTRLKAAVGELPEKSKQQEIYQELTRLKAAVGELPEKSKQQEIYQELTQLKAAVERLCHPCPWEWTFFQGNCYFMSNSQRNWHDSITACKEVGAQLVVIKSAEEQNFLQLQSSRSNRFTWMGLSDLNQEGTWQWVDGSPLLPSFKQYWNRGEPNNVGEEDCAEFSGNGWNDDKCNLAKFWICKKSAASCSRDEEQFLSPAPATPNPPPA
Procedure: SPR experiments were performed using a Biacore 3000. […] Biosensor assays were performed with HEPES-buffered saline (10 mM HEPES, 150 mM sodium chloride, pH 7.4) containing 0.005% surfactant P20 and 5 mM CaCl2 as a running buffer. All binding experiments were carried out at 25° C. with a constant flow rate of 20 μl/min. The different compounds dissolved in the running buffer (0.39 to 50 μM) were injected for 3 min, followed by a dissociation phase of 3 min. The sensor chip surface was regenerated after each experiment by injecting 10 μL of EDTA 0.5 M pH 8.0. A simple channel activated by EDC/NHS and deactivated with ethanolamine was used as control. The kinetic parameters were calculated using the BlAeval 4.1 software. Analysis was performed using the simple Langmuir binding model with separate ka/kd (kon/koff). The specific binding profiles were obtained after subtracting the response signal from the control channel and from blank-buffer injection. The fitting to each model was judged by the chi square value and randomness of residue distribution compared to the theoretical model (Langmuir binding 1:1).
The binding affinity of mannoside derivatives for the carbohydrate recognition domain (CRD) of DC-SIGN was assessed by surface plasmon resonance (SPR).
A CM5 sensor chip was functionalized with the DC-SIGN CRD, and increasing concentrations of the various compounds, mannan as a positive control and octaethyleneglycol (OEG) as a negative control, were injected over the chip surface. The association (kon) and dissociation (koff) rate constants and the resulting dissociation equilibrium constant (Kd=koff/kon) for each assessed compound were determined (see Table 1 hereunder).

HIV-1 R5 = HIV-1 R5 trans-infection of MAGI-CCR5 cells mediated by DCs; format: cell-based
Procedure: ManC1, […] (comparative) and compounds of the invention (ManC24, ManC17, TriManC24, TriDiManC24, TriManinsatC24 and ManinsatC24) were serially diluted in water. Human DCs (1×10^5 in 200 μl ) were pre-treated with different concentrations of compounds, or mannan (Sigma) or culture medium alone, in RPMI 1640 medium containing 10% FBS for 45 min at 37° C., prior infection with HIV-1 (100 ng of p24Gag) for 3 h. Excess free virus and molecules were removed by three washes. DCs were then cocultured with MAGI -CCR5 cells (1×10^5) at 37° C. plated in a 48-well plate. After two days, viral infection of MAGI-CCR5 cells was quantitated following beta-galactosidase assays and enumerating blue cells by light microscopy.
The IC50 were determined by serial dilution of each compound. The trans-infection assays were repeated a minimum of three times, and the IC50 determined using KaleidaGraph.
To investigate the ability of the compounds of the invention to inhibit HIV-1 trans infection, we chose to infect human DCs in order to best mimic in vivo conditions. Human DCs were exposed to different compounds (namely, Mannan (control), ManC1 (comparative), ManC11 (comparative), ManC17, ManC24, TriManC24, TriDiManC24, ManinsatC24 and TriManinsatC24) for 45 min at 37° C., before inoculation with HIV-1 (strains R5 and X4) for 3 hours. After extensive washings to remove unbound virions and mannosides, DCs were then co-cultured with MAGI-CCR5 cells. This procedure allows precise quantification of HIV-1 replication in reporter MAGI-CCR5 cells by detection of beta-galactosidase activity. These cells express an integrated copy of the HIV long terminal repeat (LTR) fused to the beta-galactosidase reporter gene, and express the CD4 receptor and the CCR5 and CXCR4 co-receptors, required for entry of HIV-1 R5 and X4 respectively. Upon viral entry leading to viral Tat expression and activation of the LTR, these cells permit quantification of HIV trans-infection after two days.

Dengue virus 2 (DV2) = assay: Dengue virus (DV2) cis-infection of human DCs; format: cell-based; conditions: for percentage of infected DCs: 48 hours
Procedure: Compounds of the invention (TriManC24, TriManinsatC24) were serially diluted in water. Human DCs (2.5×10^5 in 200 μl) in 48-well plates were pre-treated with different concentrations of compounds or culture medium alone, in RPMI 1640 medium […] for 30 min at 37° C. They were exposed to DV-2 at a multiplicity of infection of 1.0, for 2 h at 37° C. Cells were washed and cultured in complete RPMI medium (condition 1) or in complete medium containing the tested compounds (TriManC24, TriMannsatC24) (condition 2). After 48 h, supernatants were titered and cells were subjected to intracellular detection of viral antigens. DCs were fixed with 4% (v/v) paraformaldehyde and permeabilized with 0.1% (v/v) Triton X-100 for 3 min at room temperature. After washing, they were labeled with mouse anti-DV type 2 monoclonal antibody (3H5.1, Millipore) and stained with APC -conjugated rat anti-mouse IgG1. Fluorescence intensity of the cells was analyzed by flow cytometry (FACSCalibur, Becton Dickinson), using the Cell Quest Pro software.
There are four different dengue serotypes (1-4), and we have used DV type 2 (DV2) to further investigate the ability of the compounds of the invention (TriManC24 and TriManinsatC24) to inhibit the infection of human DCs. These cells were pre-treated with different concentrations of compounds or culture medium alone, for 30 min at 37° C. They were then exposed to DV2 for 2 hours at 37° C. Cells were washed to remove excess virions and compounds, and further cultured either in the absence (condition 1) or in the presence (condition 2) of the tested compounds. After 48 hours, cells were subjected to intracellular detection of viral antigens, and supernatants were titrated (not shown). […] FIG. 3A and FIG. 3B show the percentage of infected DCs when incubated with distinct concentrations of TriManinsatC24 in condition 1 and in condition 2, respectively. The histograms clearly show the protecting effects of TriManinsatC24, in particular in condition 2 wherein TriManinsatC24 at 10, 50 and 100 μM enabled the percentage of infected DCs to be reduced down to 40%, 20% and 2% respectively.

HIV-1 (R5 strain) = assay: HIV-1 cis-infection and replication in DCs (p24Gag ELISA); format: cell-based; conditions: 10 and 100 μM, p24Gag in supernatant
Procedure: Human monocyte-derived dendritic cells (2×10^5; 300 μL) in RPMI 1640 medium containing 10% FBS were pre-treated with either anti-DC-SIGN antibodies (clone AZND1, Beckman-Coulter; 10 μg/mL) or compounds TriManC24 and TriManC24insat (10 and 100 μM) for 30 min at 37° C., before inoculation with HIV-1 (R5 strain; 100 ng of p24Gag). After 3 h, cells were pelleted and extensively washed to remove excess virus and compounds. On day 2, 4 and 7 after infection, cells were pelleted, an aliquot of the supernatant was removed and kept at −20° C., and half of the supernatant was replaced with fresh medium. Viral replication was monitored by measuring p24Gag levels in the culture supernatant by an enzyme-linked immunosorbent assay (ELISA, Innogenetics). […] As shown in the case of Dengue virus, the compounds of the invention may also interfere with HIV cis-infection. […] Discussion

[1] = Critical micelle concentration (CMC), pyrene fluorescent probe; format: physicochemical; conditions: in water
Procedure: DiManinsatC24 was prepared according a procedure similar to that used for the preparation of TriDiManC24 except that: • pentacosanoic acid was replaced by 10,12-pentacosadiynoic acid, and • before the coupling with 10,12-pentacosadiynoic acid, the benzyl groups of compound 33 were replaced by acetyl group so as to provide compound 108 (as illustrated in FIG. 3E). ^1H NMR δ(ppm) (MeOD, 400 MHz) 4.87 (s, 3H), 4.73 (s, 3H), 3.64-3.50 (m, 14H), 3.46-3.20 (m, 76H), 2.97-2.93 (m, 6H), 2.33 (t, 6H, J=6.8 Hz), 2.09-1.96 (m, 6H), 1.08-1.05 (m, 32H), 0.66 (t, 3H, J=6.8 Hz). ^13C NMR δ (ppm) (MeOD, 100 MHz) 173.7, 168.8, 104.2, 101.2, 80.6, 80.4, 75.1, 74.7, 72.5, 72.2, 72.1, 71.9, 71.8, 71.7, 71.6, 71.4, 69.4, 69.1, 68.9, 68.7, 68.6, 68.0, 63.2, 63.1, 42.2, 37.0, 34.8, 33.7, 33.1, 30.8, 30.7, 30.6, 30.5, 30.4, 30.2, 29.5, 28.1, 27.0, 26.0, 23.7, 19.7, 14.4. […] The hydrodynamic diameters of micelles of glycolipids were measured in water using a Zetasizer Nano ZS system (Malvern Instruments). The CMCs were measured using pyrene as an extrinsic fluorescent probe and were carried out as described (Perino et al., 2011). […] Fluorescent emission of pyrene was measured at 25° C. using a Fluorolog spectrofluorometer (Jobin Yvon, Horiba). The intensities of fluorescence emission were determined at 374 nm (I374) and at 383 nm (I383), with an excitation at a 339 nm wavelength. […]

| Molecule | binding to DC-SIGN CRD (in words) (DC-SIGN CRD) | Kd (DC-SIGN CRD) | residual level of trans-infection (HIV-1 R5; HIV-1 R5, highest concentrations, relative to medium alone) | inhibition of HIV-1 trans-infection (in words) (HIV-1 R5; HIV-1 R5 where stated) | inhibition of Dengue virus infection of DCs (in words) (Dengue virus 2 (DV2)) | percentage of infected DCs (Dengue virus 2 (DV2); condition 2, 10 μM) | percentage of infected DCs (Dengue virus 2 (DV2); condition 2, 50 μM) | percentage of infected DCs (Dengue virus 2 (DV2); condition 2, 100 μM) | inhibition of HIV-1 cis-infection / replication in DCs (in words) (HIV-1 (R5 strain)) | inhibition of HIV-1 cis-infection / replication in DCs (in words) (HIV-1 (R5 strain); listed as TriManC24insat) | KD (μM) (DC-SIGN CRD) | KD (μM) (DC-SIGN CRD; listed as TriDimanC24) | ability to form micelles (in words) [1] | residual level of trans-infection (HIV-1 R5) |
| --- | --- | --- | --- | --- | --- | --- | --- | --- | --- | --- | --- | --- | --- | --- |
| mannan [reference compound] | bound efficiently |  |  |  |  |  |  |  |  |  |  |  |  |  |
| CCCCCCCCCCCCC#CC#CCCCCCCCCC(=O)NC(COCCC(=O)NCCOCCOCCOCCOC1OC(CO)C(O)C(O)C1O)(COCCC(=O)NCCOCCOCCOCCOC1OC(CO)C(O)C(O)C1O)COCCC(=O)NCCOCCOCCOCCOC1OC(CO)C(O)C(O)C1O (stereo not drawn) [TriManinsatC24] |  | 470 nM | 2% | almost fully blocked HIV trans-infection at the highest concentrations | able to inhibit the direct infection of DCs by Dengue virus | 40% | 20% | 2% | inhibit | decreases the amount of HIV R5 replication |  |  |  |  |
| CCCCCCCCCCCCCCCCCCCCCCCCC(=O)NC(COCCC(=O)NCCOCCOCCOCCOC1OC(CO)C(O)C(O)C1OC1OC(CO)C(O)C(O)C1O)(COCCC(=O)NCCOCCOCCOCCOC1OC(CO)C(O)C(O)C1OC1OC(CO)C(O)C(O)C1O)COCCC(=O)NCCOCCOCCOCCOC1OC(CO)C(O)C(O)C1OC1OC(CO)C(O)C(O)C1O (stereo not drawn) [TriDiManC24] |  | 3250 nM |  |  |  |  |  |  |  |  | low micromolar range | Sub-micromolar | unable to form micelles; also recorded: failed to form micelles | 40% |

From patent US9522928B2, “Mannosylated compounds useful for the prevention and the treatment of infectious diseases” (UNIVERSITE DE STRASBOURG, priority 2011, dated 2016)
